Legend:
[1] = test system: s.c. pheochromocytoma tumors (MPC cells); test: [^18F]-DA and [^18F]-DOPA PET in mice with subcutaneous pheochromocytoma; settings: for SUVmax (mean±S.E.M.), s.c. tumors <5 mm / SUVmax (mean±S.E.M.), s.c. tumors >5 mm / SUVmax in tumor sample s.c. 1 / SUVmax in tumor sample s.c. 2 / SUVmax in tumor sample s.c. 3 / TLR for s.c. tumors (range over tumor size) / TLR, s.c. tumors <5 mm / TLR, s.c. tumors >5 mm / TBR, s.c. tumors <5 mm / TBR, s.c. tumors >5 mm: 60–70 min after administration; for TBR, s.c. tumors <5 mm / TBR, s.c. tumors >5 mm: muscle as background; for number of subcutaneous tumors localized by PET: necropsy 4 in 4 mice
[2] = test system: organ metastatic pheochromocytoma lesions (MPC cells); test: [^18F]-DA and [^18F]-DOPA PET in mice with organ metastatic pheochromocytoma; settings: for TBR (tumor-to-background ratio), liver tumors <3 mm / TBR, adrenal tumors >3 mm / TBR, liver tumors >3 mm / TBR, ovary tumors >3 mm: muscle as background; for SUVmax in tumor sample Adrenal 1: sample also immunostained; for SUVmax in liver lesions, the first week / SUVmax in liver lesions, the second week: liver lesions imaged once a week for two weeks; for optimal time for lesion detection after administration: liver lesions vs liver background, dynamic PET up to 70 min; for number of ovary tumors localized by PET: necropsy 4 in 4 mice; for number of lung tumors localized by PET: necropsy >20 in 2 mice
[3] = test system: pheochromocytoma animal model with extensive liver and other organ lesions; assay type: in vivo; settings: preliminary experiments
[4] = cited from earlier work
[5] = Fig. 3G, 60–70 min after injection

Question: What does the source list for `N[C@@H](Cc1cc(O)c(O)cc1[18F])C(=O)O` [[^18F]-DOPA, [^18F]-L-6-fluoro-3,4-dihydroxyphenylalanine]?
Answer: SUVmax (mean±S.E.M.), s.c. tumors <5 mm [1]: 2.88±0.88; SUVmax (mean±S.E.M.), s.c. tumors >5 mm [1]: 2.0±0.06; SUVmax in tumor sample s.c. 1 [1]: 1.88; SUVmax in tumor sample s.c. 2 [1]: 2.25; SUVmax in tumor sample s.c. 3 [1]: 2.09; TLR for s.c. tumors (range over tumor size) [1]: 1.56-2.24; TLR, s.c. tumors <5 mm [1]: 2.24; TLR, s.c. tumors >5 mm [1]: 1.56; TBR, s.c. tumors <5 mm [1]: 7.2; TBR, s.c. tumors >5 mm [1]: 5.0; SUVmax in large s.c. tumor, representative animal [1, 5]: 2; number of mice with subcutaneous tumors localized by PET ([1]; four mice): 4 in 4 mice; number of subcutaneous tumors localized by PET ([1]; four mice): 4 in 4 mice; SUVmax (mean±S.E.M.), adrenal tumors >3 mm ([2]; 60–70 min after administration): 6.61±0.64; SUVmax (mean±S.E.M.), kidney ([2]; 60–70 min after administration): 1.73±0.34; SUVmax (mean±S.E.M.), liver ([2]; 60–70 min after administration): 1.33±0.14; SUVmax (mean±S.E.M.), liver tumors <3 mm ([2]; 60–70 min after administration): 3.01±0.27; SUVmax (mean±S.E.M.), liver tumors >3 mm ([2]; 60–70 min after administration): 3.61±0.19; SUVmax (mean±S.E.M.), muscle (background) ([2]; 60–70 min after administration): 0.29±0.02; SUVmax (mean±S.E.M.), ovary tumors >3 mm ([2]; 60–70 min after administration): 2.59±0.32; SUVmax in tumor sample Adrenal 2 ([2]; 60–70 min after administration): 5.79; SUVmax in tumor sample Bone ([2]; 60–70 min after administration): 1.42; SUVmax in tumor sample Liver 1 ([2]; 60–70 min after administration): 3.31; SUVmax in tumor sample Liver 2 ([2]; 60–70 min after administration): 2.79; SUVmax in tumor sample Liver 3 ([2]; 60–70 min after administration): 3.24; SUVmax in tumor sample Lung ([2]; 60–70 min after administration): 1.15; SUVmax in tumor sample Ovary ([2]; 60–70 min after administration): 3.05; TLR (tumor-to-liver ratio), liver tumors <3 mm ([2]; 60–70 min after administration): 2.26; TLR for liver lesions (range depending on tumor size) ([2]; 60–70 min after administration): 2.26–2.71; TLR, liver tumors >3 mm ([2]; 60–70 min after administration): 2.71; TBR (tumor-to-background ratio), liver tumors <3 mm ([2]; 60–70 min after administration): 10.38; TBR, adrenal tumors >3 mm ([2]; 60–70 min after administration): 22.79; TBR, liver tumors >3 mm ([2]; 60–70 min after administration): 12.45; TBR, ovary tumors >3 mm ([2]; 60–70 min after administration): 8.93; SUVmax in tumor sample Adrenal 1 ([2]; 60–70 min after administration): 6.46; SUVmax time–activity course, liver lesions regardless of tumor size ([2]; dynamic PET 10–70 min, Fig. 1): remained stable over time; SUVmax in liver lesions, the first week [2]: 3.023±0.22; SUVmax in liver lesions, the second week [2]: 2.88±0.12; optimal time for lesion detection after administration [2]: 60 to 70 min; number of mice with adrenal tumors localized by PET ([2]; week 5, nine mice): 5 mice; number of mice with liver tumors localized by PET ([2]; week 5, nine mice): 9 mice; number of mice with lung tumors localized by PET ([2]; week 5, nine mice): 1 in 1 mouse; number of mice with ovary tumors localized by PET ([2]; week 5, nine mice): 4 in 4 mice; number of ovary tumors localized by PET ([2]; week 5, nine mice): 4 in 4 mice; number of adrenal tumors localized by PET ([2]; week 5, nine mice, necropsy 18 in 9 mice): 9; number of lung tumors localized by PET ([2]; week 5, nine mice): 1 in 1 mouse

Question: What does the source list for `NCCc1cc(O)c(O)cc1[18F]` [[^18F]-DA, [^18F]-6-fluorodopamine]?
Answer: SUVmax (mean±S.E.M.), s.c. tumors <5 mm [1]: 0.31±0.02; SUVmax (mean±S.E.M.), s.c. tumors >5 mm [1]: 0.35±0.12; SUVmax in tumor sample s.c. 1 [1]: — (A dash sign “—” presents SUVmax values less than 0.3 for both [^18F]-DA and [^18F]-DOPA); SUVmax in tumor sample s.c. 2 [1]: — (A dash sign “—” presents SUVmax values less than 0.3 for both [^18F]-DA and [^18F]-DOPA); SUVmax in tumor sample s.c. 3 [1]: — (A dash sign “—” presents SUVmax values less than 0.3 for both [^18F]-DA and [^18F]-DOPA); TLR for s.c. tumors (range over tumor size) [1]: 0.22-0.27; TLR, s.c. tumors <5 mm [1]: 0.22; TLR, s.c. tumors >5 mm [1]: 0.27; TBR, s.c. tumors <5 mm [1]: 1.72; TBR, s.c. tumors >5 mm [1]: 1.94; SUVmax in large s.c. tumor, representative animal [1, 5]: 0.35; SUVmax in muscle (nontarget tissue), representative animal [1, 5]: 0.31; number of subcutaneous tumors localized by PET ([1]; four mice): 0; SUVmax (mean±S.E.M.), adrenal tumors >3 mm ([2]; 60–70 min after administration): 2.18±0.39; SUVmax (mean±S.E.M.), kidney ([2]; 60–70 min after administration): 2.41±0.45; SUVmax (mean±S.E.M.), liver ([2]; 60–70 min after administration): 0.88±0.11; SUVmax (mean±S.E.M.), liver tumors <3 mm ([2]; 60–70 min after administration): 1.61±0.17; SUVmax (mean±S.E.M.), liver tumors >3 mm ([2]; 60–70 min after administration): 2.49±0.08; SUVmax (mean±S.E.M.), muscle (background) ([2]; 60–70 min after administration): 0.31±0.02; SUVmax (mean±S.E.M.), ovary tumors >3 mm ([2]; 60–70 min after administration): 1.99±0.27; SUVmax in tumor sample Adrenal 2 ([2]; 60–70 min after administration): 1.98; SUVmax in tumor sample Bone ([2]; 60–70 min after administration): — (A dash sign “—” presents SUVmax values less than 0.3 for both [^18F]-DA and [^18F]-DOPA); SUVmax in tumor sample Liver 1 ([2]; 60–70 min after administration): 2.46; SUVmax in tumor sample Liver 2 ([2]; 60–70 min after administration): 1.89; SUVmax in tumor sample Liver 3 ([2]; 60–70 min after administration): — (A dash sign “—” presents SUVmax values less than 0.3 for both [^18F]-DA and [^18F]-DOPA); SUVmax in tumor sample Lung ([2]; 60–70 min after administration): — (A dash sign “—” presents SUVmax values less than 0.3 for both [^18F]-DA and [^18F]-DOPA); SUVmax in tumor sample Ovary ([2]; 60–70 min after administration): 1.92; TLR (tumor-to-liver ratio), liver tumors <3 mm ([2]; 60–70 min after administration): 1.83; TLR for liver lesions (range depending on tumor size) ([2]; 60–70 min after administration): 1.83–2.83; TLR, adrenal tumors >3 mm ([2]; 60–70 min after administration): 2.47; TLR, liver tumors >3 mm ([2]; 60–70 min after administration): 2.83; TLR, ovary tumors >3 mm ([2]; 60–70 min after administration): 2.26; TBR (tumor-to-background ratio), liver tumors <3 mm ([2]; 60–70 min after administration): 5.19; TBR, adrenal tumors >3 mm ([2]; 60–70 min after administration): 7.03; TBR, liver tumors >3 mm ([2]; 60–70 min after administration): 8.03; TBR, ovary tumors >3 mm ([2]; 60–70 min after administration): 6.41; SUVmax in tumor sample Adrenal 1 ([2]; 60–70 min after administration): 2.15; SUVmax time–activity course, liver lesions smaller than 3 mm ([2]; dynamic PET 10–70 min, Fig. 1): remained relatively stable; SUVmax time–activity course, liver tumors larger than 3 mm ([2]; dynamic PET 10–70 min, Fig. 1): decrease in SUVmax over time; SUVmax in liver lesions, the first week [2]: 1.85±0.199; SUVmax in liver lesions, the second week [2]: 1.16±0.07; optimal time for lesion detection after administration [2]: 60 to 70 min; number of mice with adrenal tumors localized by PET ([2]; week 5, nine mice): 4 mice; number of mice with liver tumors localized by PET ([2]; week 5, nine mice): 8 mice; number of mice with ovary tumors localized by PET ([2]; week 5, nine mice): 4 in 4 mice; number of ovary tumors localized by PET ([2]; week 5, nine mice): 4 in 4 mice; number of lung tumors localized by PET ([2]; week 5, nine mice): 0

Question: With `CNCCCN1c2ccccc2CCc2ccccc21` [desipramine] as the compound, how does the “side effects on administration in tumor-bearing animals” value (from here on “side effects on administration”) [3] read?
Answer: side effects were in most cases fatal

Question: For `NCCc1ccc(O)c(O)c1` [dopamine], which half-life in circulation [4] is on record?
Answer: about 1 minute

Question: With `COc1cc2c(cc1OC)C1CC(=O)C(CC(C)C)CN1CC2` (stereo not shown) [tetrabenazine] as the compound, how does the “side effects on administration” value [3] read?
Answer: side effects were in most cases fatal

Question: For `COC(=O)[C@H]1[C@H]2C[C@@H]3c4[nH]c5cc(OC)ccc5c4CCN3C[C@H]2C[C@@H](OC(=O)c2cc(OC)c(OC)c(OC)c2)[C@@H]1OC` [reserpine], which “side effects on administration” value [3] is on record?
Answer: side effects were in most cases fatal

— paper PMC4713029 (Nuclear medicine and biology, 2011)
